Test results as given in US5821258A, “Phenylbenzimidazole derivatives” (priority 1994, dated 1998).
In brackets after ≈: the same amount, converted by molar mass. Structures can show the parent of a compound that is named as a salt.

Assays:
[1] = tested on: mouse colon cancer cells of Colon 26; test: Anti-tumor test in mice implanted with Colon 26 cells, tumor weight on 15th day (Test Example 3); type: in vivo; conditions: tail vein on 1st day, Colon 26 s.c. in female CDF1 mouse, tumor weight on 15th day vs control 100%
Description: A cell floating solution having 1×10^7 mouse colon cancer cells of Colon 26 per ml of HBSS (Hanks' Balanced Salt Solution) was prepared. Next, 0.1 ml of this cell floating solution was implanted in the side abdomen hypodermis of a female CDFl mouse (0 day). On the day after the tumor implantation (1st day), the weight of the mouse was measured, and a solution of a compound (a 5% glucose solution containing 5% Tween 80) was administered into the tail vein of the mouse. On the 15th day, the tumor was extracted, and its weight was then measured.
An average tumor weight ratio of each experimental sample was calculated as a T/C value on the assumption that the average tumor weight ratio of a control to which any compound was not administered was 100%.
The T/C values correspond to compound numbers, respectively, and each value in the parentheses represents the concentration of the drug at the time when its T/C value was obtained.

B16 melanoma cells = test: in vitro inhibitory activity on tumor cell growth, B16 melanoma cells (Test Example 2); type: cell-based; conditions: B16 mouse melanoma cells, 37° C., 3 days, 5% CO2, concentration for 50% growth inhibitory effect
Description: The anticancer activity of each compound will be described. […] This test was carried out by measuring an in vitro inhibitory activity on tumor cell growth. That is to say, the B16 melanoma cells of a mouse were planted on a culture plate having 96 cells, and a compound was then added after one day and the cells were cultured at 37° C. for 3 days in 5% CO2. Next, a compound concentration (IC50) necessary to accomplish a 50% growth inhibitory effect was determined in accordance with a procedure described in Cancer. Res., Vol. 48, p. 589-601 (1988). The unit of the drug concentration was μg/ml. The result of distamycin is also simultaneously shown as a comparative example.

poly d(A-T)-d(A-T) = test: Linkage to DNA, Tm value comparison with and without compound (Test Example 1); type: binding; conditions: poly d(A-T)-d(A-T) in buffer; difference from Tm of the DNA alone
Description: Investigation was made on the linkage of each compound to DNA. The test was carried out by comparing a Tm value in the case that the compound was added to the DNA solution with a Tm value in the case that no compound was added thereto.
That is to say, poly d(A-T)-d(A-T) was used as the DNA. This DNA was dissolved in a buffer solution and the compound was further added thereto, and the Tm value was then measured. On the other hand, the Tm of the DNA alone was measured, and a difference (ΔTm) was then calculated. For the measurement, a U-3200 model spectrophotometer made by Hitachi, Ltd. was used, and for the control of temperature, SPR-10 model made by Hitachi, Ltd. was used.

Row | SMILES | IC50 (anti-tumor activity) (B16 melanoma cells) | also measured
1 | COc1cccc2c1C(=O)c1c(O)c3c(c(O)c1C2=O)C[C@@](O)(C(=O)CO)C[C@@H]3O[C@H]1C[C@H](N)[C@H](O)[C@H](C)O1 [Adriamycin, adriamycin, reference compound] |  | T/C ([1]; 20 mg/kg): 29%
2 | N=C(N)CCNC(=O)c1ccc2[nH]c(-c3ccc(NC(=O)CCCc4ccc(N(CCCl)CCCl)cc4)cc3)nc2c1 [Compound 2, 1H-2-[4-[[4-[4-[N,N-bis(2-chloroethyl)amino]phenyl]butyryl]amino]phenyl]benzimidazole-5-[N-(2-amidinoethyl]carboxyamide hydrochloride] | 0.58 µg/mL | 
3 | CN(C)CCCNC(=O)c1ccc2[nH]c(-c3ccc(NC(=O)CCCc4ccc(N(CCCl)CCCl)cc4)cc3)nc2c1 [Compound 29, 1H-2-[4-[[4-[4-[N,N-bis(2-chloroethyl)amino]phenyl]butyryl]amino]phenyl]benzimidazole-5-[N-[3-(dimethylamino)propyl]]carboxyamide] | 3.05 µg/mL (≈ 4.89 µM) | 
4 | N=C(N)CCNC(=O)c1ccc2[nH]c(-c3cccc(NC(=O)CCCc4ccc(N(CCCl)CCCl)cc4)c3)nc2c1 [Compound 47, 1H-2-[3-[[4-[4-[N,N-bis(2-chloroethyl)amino]phenyl]butyryl]amino]phenyl]benzimidazole-5-[N-(2-amidinoethyl]carboxyamide hydrochloride] | 0.38 µg/mL | 
5 | N=C(N)NCC(=O)Nc1ccc(-c2nc3cc(C(=O)Nc4ccc(N(CCCl)CCCl)cc4)ccc3[nH]2)cc1 [Compound 1001, 1H-2-[4-(guanidinoacetylamino)phenyl]benzimidazole-5-[N-[4-[N,N-bis(2-chloroethyl)amino)phenyl]]carboxyamide dihydrochloride] | 0.36 µg/mL | 
6 | N=C(N)NCC(=O)Nc1ccc(-c2nc3cc(C(=O)Nc4cccc(N(CCCl)CCCl)c4)ccc3[nH]2)cc1 [Compound 1010, 1H-2-[4-(guanidinoacetylamino)phenyl]benzimidazole-5-[N-[3-[N,N-bis(2-chloroethyl)amino]phenyl]]carboxyamide] | 3.19 µg/mL (≈ 5.62 µM) | 
7 | N=C(N)NCC(=O)Nc1cccc(-c2nc3cc(C(=O)Nc4ccc(N(CCCl)CCCl)cc4)ccc3[nH]2)c1 [Compound 2001, 1H-2-[3-(guanidinoacetylamino)phenyl]benzimidazole-5-[N-[4-[N,N-bis(2-chloroethyl)amino)phenyl]]carboxyamide dihydrochloride] | 0.82 µg/mL | ΔTm (poly d(A-T)-d(A-T)): 14 °C; T/C ([1]; 30 mg/kg): 13%
8 | Cc1cc(NC(=O)c2ccc3[nH]c(-c4cccc(NC(=O)CNC(=N)N)c4)nc3c2)ccc1N(CCCl)CCCl [Compound 2004, 1H-2-[3-(guanidinoacetylamino)phenyl]benzimidazole-5-[N-[3-methyl-4-[N,N-bis(2-chloroethyl)amino]phenyl]]carboxyamide dihydrochloride] | 0.53 µg/mL | 
9 | N=C(N)NCC(=O)Nc1cccc(-c2nc3cc(C(=O)Nc4ccc(N(CCCl)CCCl)c(Cl)c4)ccc3[nH]2)c1 [Compound 2006, 1H-2-[3-(guanidinoacetylamino)phenyl]benzimidazole-5-[N-[3-chloro-4-[N,N-bis(2-chloroethyl)amino]phenyl]]carboxyamide dihydrochloride] | 0.65 µg/mL | T/C ([1]; 10 mg/kg): 21%
10 | N=C(N)NCCCC(=O)Nc1cccc(-c2nc3cc(C(=O)Nc4ccc(N(CCCl)CCCl)cc4)ccc3[nH]2)c1 [Compound 2011, 1H-2-[3-[4-(guanidino)butyryl]amino]phenyl]benzimidazole-5-[N-[4-[N,N-bis(2-chloroethyl)amino)phenyl]]carboxyamide dihydrochloride] | 0.97 µg/mL | 
11 | Cc1cc(NC(=O)c2ccc3[nH]c(-c4cccc(NC(=O)CCCNC(=N)N)c4)nc3c2)ccc1N(CCCl)CCCl [Compound 2014, 1H-2-[3-[[4-(guanidino)butyryl]amino]phenyl]benzimidazole-5-[N-[3-methyl-4-[N,N-bis(2-chloroethyl)amino]phenyl]]carboxyamide dihydrochloride] | 1.18 µg/mL | 
12 | N=C(N)NCCCC(=O)Nc1cccc(-c2nc3cc(C(=O)Nc4ccc(N(CCCl)CCCl)c(Cl)c4)ccc3[nH]2)c1 [Compound 2016, 1H-2-[3-[[4-(guanidino)butyryl]amino]phenyl]benzimidazole-5-[N-[3-chloro-4-[N,N-bis(2-chloroethyl)amino]phenyl]]carboxyamide dihydrochloride] | 2.08 µg/mL | 
13 | CN(C)CCCC(=O)Nc1cccc(-c2nc3cc(C(=O)Nc4ccc(N(CCCl)CCCl)cc4)ccc3[nH]2)c1 [Compound 2031, 1H-2-[3-[[4-(dimethylamino)butyryl]amino]phenyl]benzimidazole-5-[N-[4-[N,N-bis(2-chloroethyl)amino)phenyl]]carboxyamide dihydrochloride] | 1.56 µg/mL | 
14 | C[S+](C)CCC(=O)Nc1cccc(-c2nc3cc(C(=O)Nc4ccc(N(CCCl)CCCl)cc4)ccc3[nH]2)c1 [Compound 2041, 2-[N-[3-[5-[N-[4-[N,N-bis(2-chloroethyl)amino]phenylnyl]carbamoyl]-1H-benzimidazole-2-yl]phenyl]]carbamoylethyl-dimethylsulfonium iodide] | 0.37 µg/mL | 
15 | Cc1cc(NC(=O)c2ccc3[nH]c(-c4cccc(NC(=O)CC[S+](C)C)c4)nc3c2)ccc1N(CCCl)CCCl.[I-] [Compound 2044, 2-[N-[3-[5-[N-[3-methyl-4-[N,N-bis(2-chloroethyl)amino]phenyl]carbamoyl]-1Hbenzimidazole-2-yl]phenyl]]carbamoylethyl-dimethylsulfonium iodide] | 0.72 µg/mL | 
16 | C[S+](C)CCC(=O)Nc1cccc(-c2nc3cc(C(=O)Nc4ccc(N(CCCl)CCCl)c(Cl)c4)ccc3[nH]2)c1 [Compound 2046, 2-[N-[3-[5-[N-[3-chloro-4-[N,N-bis(2-chloroethyl)amino]phenyl]carbamoyl]-1H-benzimidazole-2-yl]phenyl]carbamoylethyl]dimethylsulfonium iodide] | 0.39 µg/mL | 
17 | O=C(CCN1CCOCC1)Nc1cccc(-c2nc3cc(C(=O)Nc4ccc(N(CCCl)CCCl)cc4)ccc3[nH]2)c1 [Compound 2051, 1H-2-[3-[(3-morpholinopropionyl)amino]phenyl]benzimidazole-5-[N-[4-[N,N-bis(2-chloroethyl)amino]phenyl]]carboxyamide hydrochloride] | 0.49 µg/mL | 
18 | Cc1cc(NC(=O)c2ccc3[nH]c(-c4cccc(NC(=O)CCN5CCOCC5)c4)nc3c2)ccc1N(CCCl)CCCl [Compound 2053, 1H-2-[3-[(3-morpholinopropionyl)amino]phenyl]benzimidazole-5-[N-[4-[N,N-bis(2-chloroethyl)]amino-3-methyl]phenyl]carboxyamide hydrochloride] | 0.33 µg/mL | 
19 | O=C(CCN1CCOCC1)Nc1cccc(-c2nc3cc(C(=O)Nc4ccc(N(CCCl)CCCl)c(Cl)c4)ccc3[nH]2)c1 [Compound 2054, 1H-2-[3-[(3-morpholinopropionyl)amino]phenyl]benzimidazole-5-[N-[3-chloro-4-[N-bis(2-chloroethyl)amino]phenyl]]carboxyamide hydrochloride] | 0.41 µg/mL | 
20 | Cc1cc(NC(=O)c2ccc3[nH]c(-c4cccc(NC(=O)Cc5cccnc5)c4)nc3c2)ccc1N(CCCl)CCCl [Compound 2063, 1H-2-[3-(3-pyridylacetylamino)phenyl]benzimidazole-5-[N-[3-methyl-4-[N,N-bis(2-chloroethyl)amino]phenyl]]carboxyamide] | 3.48 µg/mL (≈ 5.79 µM) | 
21 | Cn1cc(NC(=O)c2cc(NC(=O)c3cc(NC=O)cn3C)cn2C)cc1C(=O)NCCC(=N)N [Distamycin, distamycin, reference compound] |  | IC50 (B16 melanoma cells; 72 h, read-out: IC50 (anti-tumor activity)): 36 µg/mL (≈ 74.8 µM)
